From US20250163052A1, “cGAS INHIBITORS AND USES THEREOF” (Cornell University, priority 2022, published 2025)

Columns and labels:
h-cGAS = h-cGAS (Homo sapiens, UniProt Q8N884); assay: Cell-free human cGAS enzyme inhibition assay (ATP depletion, Kinase-Glo Max); assay type: biochemical; conditions: human cGAS
MEF2C target genes = assay: Single-nuclei RNA-seq of excitatory and inhibitory neurons, overlap with MEF2C target genes; assay type: in vivo, mouse; conditions: P301S mice, 150 mg/kg diet for three months; snRNA-seq
Procedure: Hippocampi isolation from frozen mouse hippocampi was adapted from a previous study with modifications (Grubman et al., 2019; Habib et al., 2017). All procedures were done on ice or at 4° C. In brief, post-mortem brain tissue was placed in 1500 μl of Sigma nuclei PURE lysis buffer (Sigma, NUC201-1KT) and homogenized with a Dounce tissue grinder (Sigma, D8938-1SET) with 20 strokes with pestle A and 15 strokes with pestle B. The homogenized tissue was filtered through a 35-μm cell strainer, then centrifuged at 600 g for 5 min at 4° C. and washed three times with 1 ml of PBS containing 1% BSA, 20 mM DTT and 0.2 U μl^−1 recombinant RNase inhibitor. […] The FACS-sorted suspension of DAPI-stained nuclei were counted and diluted to a concentration of 1000 nuclei per microliter in PBS containing 0.04% BSA. […]
Gene counts were obtained by aligning reads to the mm10 genome with Cell Ranger software (v.3.1.0) (10× Genomics). To account for unspliced nuclear transcripts, reads mapping to pre-mRNA were counted. […] We further removed genes expressed in no more than 2 cells, cells with unique gene counts over 4,000 or less than 200, and cells with high fraction of mitochondrial reads (>5%). […] To identify gene ontology and pathways enriched in the differentially expressed genes (DEGs), DEGS were analysed using (MSigDB) gene annotation database (Liberzon et al., 2011; Subramanian et al., 2005). […]

[1] = Protein binding in mouse brain homogenates; assay type: in vitro ADME
[2] = Metabolic stability in human liver microsomes

h-cGAS, sequence (Q8N884 whole entry): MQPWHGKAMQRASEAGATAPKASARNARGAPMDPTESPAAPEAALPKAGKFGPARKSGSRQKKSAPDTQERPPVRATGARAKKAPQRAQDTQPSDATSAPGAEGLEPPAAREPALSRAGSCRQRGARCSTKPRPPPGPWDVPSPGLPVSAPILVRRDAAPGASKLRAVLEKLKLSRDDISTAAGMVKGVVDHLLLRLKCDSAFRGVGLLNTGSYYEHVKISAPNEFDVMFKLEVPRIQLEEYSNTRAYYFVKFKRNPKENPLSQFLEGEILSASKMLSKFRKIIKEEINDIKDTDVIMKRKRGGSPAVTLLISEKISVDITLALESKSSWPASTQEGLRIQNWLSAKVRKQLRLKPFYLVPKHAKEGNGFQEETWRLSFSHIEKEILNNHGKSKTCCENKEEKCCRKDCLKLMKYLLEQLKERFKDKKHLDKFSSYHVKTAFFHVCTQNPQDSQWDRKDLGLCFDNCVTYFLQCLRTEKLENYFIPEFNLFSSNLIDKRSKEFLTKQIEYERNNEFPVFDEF

SMILES: Cn1c2c(c3ccc(Cl)c(F)c31)CN(C(=O)CO)CC2 [TDI-6570, reference compound]
- IC50 (h-cGAS): 138 nM
- Enrichment of MEF2C target genes in DEGs of excitatory and inhibitory neurons (MEF2C target genes): strong enrichment of MEF2C target genes
- % Recovery [1]: 89.39%
- LogK [1]: 2.38
- % Remaining at 6 hr ([1]; 6 hr): 94.51%
- Remaining (NCF = 60 min) ([2]; human liver microsomes, 60 min, no co-factor (no NADPH)): 120.6%
- Remaining (T = 60 min) ([2]; human liver microsomes, 60 min with NADPH): 11.3%
- CLint(liver) ([2]; human liver microsomes, scaled from CLint(mic)): 68.2 mL/min/kg
- CLint(mic) ([2]; human, liver microsomes): 75.8 µL/min/mg
- T½ ([2]; human, liver microsomes): 18.3 min
